Assay results reported in paper PMC9386018, “A lymphatic-absorbed multi-targeted kinase inhibitor for myelofibrosis therapy” (Nature Communications, 2022).
Several values for one entry are separate records, joined by “and”; a condition that tells them apart may be missing. Equal entries are not always repeated.

Assay: Pharmacokinetic analysis of plasma after intravenous and oral dosing
Settings: for concentration at 0.5 h / concentration at 1 h / concentration at 2 h / concentration at 4 h / concentration at 7 h / concentration at 24 h / half-life: female, CD-1, mouse
Method: Samples were centrifuged at 15,000 rpm for 10 min, then blood plasma was collected from the upper layer and frozen at −80 °C until analysis. […] Sample processing, chromatographic separation, MS, and MS/MS parameters used for analysis were determined by the core. […] Standard curves for peak area ratio of compound to internal standard (Astd/AIstd) vs. compound concentration were used to determine sample analyte concentrations through linear regression with a weighting average of 1/X^2. […] All pharmacokinetic parameters were estimated using non-compartmental analysis with Phoenix/WINONLIN, and provided by the core along with calculated sample analyte concentrations. Data was generated from n ≥ 3 individual animals sampled per time point per compound for each method of dosing.

For O=C(NOCCOCCOCCOCCC(=O)N1CCN(c2cnc3ccc(-c4cnc(Cl)c(NS(=O)(=O)c5ccc(F)cc5)c4)cc3n2)CC1)c1ccc(F)c(F)c1Nc1ccc(I)cc1F [LP-182, N-(2-(2-(2-(3-(4-(7-(6-chloro-5-((4-fluorophenyl)sulfonamido)pyridin-3-yl)quinoxalin-2-yl)piperazin-1-yl)-3-oxopropoxy)ethoxy)ethoxy)ethoxy)-3,4-difluoro-2-((2-fluoro-4-iodophenyl)amino)benzamide], which Concentration (Supplementary Figure 6a, i.v., Time 1 h, individual replicates) is on record?
Its Concentration is 451 ng/mL and 857 ng/mL.

And the Concentration (Supplementary Figure 6a, i.v., Time 2 h, individual replicates)?
Its Concentration is 275 ng/mL and 179 ng/mL.

What about the Concentration (Supplementary Figure 6a, i.v., Time 4 h, individual replicates) of the same compound?
Its Concentration is 141 ng/mL and 75.9 ng/mL.

What about the Concentration (Supplementary Figure 6a, i.v., Time 7 h, individual replicates) of the same compound?
Its Concentration is 51.4 ng/mL and 34.3 ng/mL.

What about the Concentration (Supplementary Figure 6a, i.v., Time 16 h, individual replicates) of the same compound?
Its Concentration is 30.6 ng/mL and 29.3 ng/mL and 5.58 ng/mL.

What about the Concentration (Supplementary Figure 6a, i.v., Time 24 h, individual replicates) of the same compound?
The Concentration was 7.68 ng/mL and 8.28 ng/mL.

And the Concentration (Supplementary Figure 6a, p.o., Time 0.167 h, individual replicates)?
Its Concentration is 731 ng/mL and 1660 ng/mL and 900 ng/mL.

What about the Concentration (Supplementary Figure 6a, p.o., Time 0.5 h, individual replicates) of the same compound?
Its Concentration is 2150 ng/mL and 2630 ng/mL.

And the Concentration (Supplementary Figure 6a, p.o., Time 1 h, individual replicates)?
Its Concentration is 1580 ng/mL and 1950 ng/mL.

What about the Concentration (Supplementary Figure 6a, p.o., Time 2 h, individual replicates) of the same compound?
Its Concentration is 424 ng/mL and 145 ng/mL and 74.1 ng/mL.

What about the Concentration (Supplementary Figure 6a, p.o., Time 4 h, individual replicates) of the same compound?
Its Concentration is 146 ng/mL and 522 ng/mL and 339 ng/mL.

What about the Concentration (Supplementary Figure 6a, p.o., Time 7 h, individual replicates) of the same compound?
Its Concentration is 331 ng/mL and 97.6 ng/mL and 1560 ng/mL.

And the Concentration (Supplementary Figure 6a, p.o., Time 16 h, individual replicates)?
The Concentration was 79.2 ng/mL and 205 ng/mL and 265 ng/mL.

What about the Concentration (Supplementary Figure 6a, p.o., Time 24 h, individual replicates) of the same compound?
Its Concentration is 401 ng/mL and 114 ng/mL and 295 ng/mL.

What about the concentration at 0.5 h (plasma, iv, 15 mg kg^−1, Concentration (ng/mL), mice, single i.v. LP-182 15 mg kg^−1, 0.5 h, analyte = label, individual animals) of the same compound?
Its concentration at 0.5 h is 1180 ng/mL.

And the concentration at 1 h (plasma, iv, 15 mg kg^−1, Concentration (ng/mL), mice, single i.v. LP-182 15 mg kg^−1, 1 h, analyte = label, individual animals)?
Its concentration at 1 h is 524 ng/mL.

What about the concentration at 2 h (plasma, iv, 15 mg kg^−1, Concentration (ng/mL), mice, single i.v. LP-182 15 mg kg^−1, 2 h, analyte = label, individual animals) of the same compound?
The concentration at 2 h was 275 ng/mL.

What about the concentration at 4 h (plasma, iv, 15 mg kg^−1, Concentration (ng/mL), mice, single i.v. LP-182 15 mg kg^−1, 4 h, analyte = label, individual animals) of the same compound?
Its concentration at 4 h is 83.2 ng/mL.

And the concentration at 7 h (plasma, iv, 15 mg kg^−1, Concentration (ng/mL), mice, single i.v. LP-182 15 mg kg^−1, 7 h, analyte = label, individual animals)?
Its concentration at 7 h is 29.2 ng/mL.

What about the concentration at 24 h (plasma, iv, 15 mg kg^−1, Concentration (ng/mL), mice, single i.v. LP-182 15 mg kg^−1, 24 h, analyte = label, individual animals) of the same compound?
Its concentration at 24 h is 9.67 ng/mL.

What about the concentration at 0.5 h (plasma, iv, 15 mg kg^−1, Concentration, Supplementary Figure 6a, Time 0.5 h, individual replicates) of the same compound?
Its concentration at 0.5 h is 1180 ng/mL.

What about the concentration at 1 h (plasma, iv, 15 mg kg^−1, Concentration, Supplementary Figure 6a, Time 1 h, individual replicates) of the same compound?
Its concentration at 1 h is 524 ng/mL.

What about the concentration at 2 h (plasma, iv, 15 mg kg^−1, Concentration, Supplementary Figure 6a, Time 2 h, individual replicates) of the same compound?
Its concentration at 2 h is 275 ng/mL.

What about the concentration at 4 h (plasma, iv, 15 mg kg^−1, Concentration, Supplementary Figure 6a, Time 4 h, individual replicates) of the same compound?
Its concentration at 4 h is 83.2 ng/mL.

What about the concentration at 7 h (plasma, iv, 15 mg kg^−1, Concentration, Supplementary Figure 6a, Time 7 h, individual replicates) of the same compound?
Its concentration at 7 h is 29.2 ng/mL.

And the concentration at 24 h (plasma, iv, 15 mg kg^−1, Concentration, Supplementary Figure 6a, Time 24 h, individual replicates)?
Its concentration at 24 h is 9.67 ng/mL.

And the half-life (plasma, iv, 15 mg/kg)?
The half-life was 474 min.

What about the concentration at 0.5 h (plasma, po, 400 mg kg^−1, Concentration (ng/mL), mice, single p.o. LP-182 400 mg kg^−1, 0.5 h, analyte = label, individual animals) of the same compound?
The concentration at 0.5 h was 2530 ng/mL.

And the concentration at 1 h (plasma, po, 400 mg kg^−1, Concentration (ng/mL), mice, single p.o. LP-182 400 mg kg^−1, 1 h, analyte = label, individual animals)?
The concentration at 1 h was 1240 ng/mL.

What about the concentration at 0.5 h (plasma, po, 400 mg kg^−1, Concentration, Supplementary Figure 6a, Time 0.5 h, individual replicates) of the same compound?
The concentration at 0.5 h was 2530 ng/mL.

What about the concentration at 1 h (plasma, po, 400 mg kg^−1, Concentration, Supplementary Figure 6a, Time 1 h, individual replicates) of the same compound?
Its concentration at 1 h is 1240 ng/mL.

What about the half-life (plasma, po, 400 mg/kg) of the same compound?
The half-life was 762 min.

And the “plasma level maintained over 24 h” value (mice, after oral LP-182 400 mg kg^−1, analyte = label)?
The value was ~ 300 ng mL^-1.

And the “Concentration” value (mice, plasma, single i.v. LP-182 15 mg kg^−1, 0.167 h, analyte = label, individual animals)?
Its value is 11100 ng/mL and 8270 ng/mL and 5220 ng/mL.

And the “Concentration” value (mice, plasma, single i.v. LP-182 15 mg kg^−1, 0.5 h, analyte = label, individual animals)?
The value was 807 ng/mL and 646 ng/mL.

What about the “Concentration” value (mice, plasma, single i.v. LP-182 15 mg kg^−1, 1 h, analyte = label, individual animals) of the same compound?
The value was 451 ng/mL and 857 ng/mL.

What about the “Concentration” value (mice, plasma, single i.v. LP-182 15 mg kg^−1, 2 h, analyte = label, individual animals) of the same compound?
Its value is 275 ng/mL and 179 ng/mL.

What about the “Concentration” value (mice, plasma, single i.v. LP-182 15 mg kg^−1, 4 h, analyte = label, individual animals) of the same compound?
Its value is 141 ng/mL and 75.9 ng/mL.

And the “Concentration” value (mice, plasma, single i.v. LP-182 15 mg kg^−1, 7 h, analyte = label, individual animals)?
The value was 51.4 ng/mL and 34.3 ng/mL.

What about the “Concentration” value (mice, plasma, single i.v. LP-182 15 mg kg^−1, 16 h, analyte = label, individual animals) of the same compound?
The value was 30.6 ng/mL and 29.3 ng/mL and 5.58 ng/mL.

What about the “Concentration” value (mice, plasma, single i.v. LP-182 15 mg kg^−1, 24 h, analyte = label, individual animals) of the same compound?
The value was 7.68 ng/mL and 8.28 ng/mL.

What about the “Concentration” value (mice, plasma, single p.o. LP-182 400 mg kg^−1, 0.167 h, analyte = label, individual animals) of the same compound?
The value was 731 ng/mL and 1660 ng/mL and 900 ng/mL.

And the “Concentration” value (mice, plasma, single p.o. LP-182 400 mg kg^−1, 0.5 h, analyte = label, individual animals)?
The value was 2150 ng/mL and 2630 ng/mL.

What about the “Concentration” value (mice, plasma, single p.o. LP-182 400 mg kg^−1, 1 h, analyte = label, individual animals) of the same compound?
Its value is 1580 ng/mL and 1950 ng/mL.

What about the “Concentration” value (mice, plasma, single p.o. LP-182 400 mg kg^−1, 2 h, analyte = label, individual animals) of the same compound?
The value was 424 ng/mL and 145 ng/mL and 74.1 ng/mL.

And the “Concentration” value (mice, plasma, single p.o. LP-182 400 mg kg^−1, 4 h, analyte = label, individual animals)?
The value was 146 ng/mL and 522 ng/mL and 339 ng/mL.

And the “Concentration” value (mice, plasma, single p.o. LP-182 400 mg kg^−1, 7 h, analyte = label, individual animals)?
Its value is 331 ng/mL and 97.6 ng/mL and 1560 ng/mL.

What about the “Concentration” value (mice, plasma, single p.o. LP-182 400 mg kg^−1, 16 h, analyte = label, individual animals) of the same compound?
Its value is 79.2 ng/mL and 205 ng/mL and 265 ng/mL.

What about the “Concentration” value (mice, plasma, single p.o. LP-182 400 mg kg^−1, 24 h, analyte = label, individual animals) of the same compound?
The value was 401 ng/mL and 114 ng/mL and 295 ng/mL.
